Assay results from patent US5620676A, “Biologically active ATP analogs” (priority 1995, dated 1997).
“Also recorded” adds a separate entry of the source. Where two headings read alike, the source gives them in different places.

What was measured:
[1] = target: T1, P2X receptor (urinary bladder) (Cavia porcellus, UniProt A0A286XVA9); test: Contraction of guinea pig isolated urinary bladder detrussor muscle; details: guinea pig urinary bladder
T1 construct: guinea pig isolated urinary bladder detrussor muscle; from tissue; host or cells: guinea pig isolated urinary bladder detrusor muscle

[2] = target: T2, P2X receptor (vas deferens) (Cavia porcellus, UniProt A0A286XVA9); test: Contraction of guinea pig isolated vas deferens
T2 sequence (A0A286XVA9 1-399): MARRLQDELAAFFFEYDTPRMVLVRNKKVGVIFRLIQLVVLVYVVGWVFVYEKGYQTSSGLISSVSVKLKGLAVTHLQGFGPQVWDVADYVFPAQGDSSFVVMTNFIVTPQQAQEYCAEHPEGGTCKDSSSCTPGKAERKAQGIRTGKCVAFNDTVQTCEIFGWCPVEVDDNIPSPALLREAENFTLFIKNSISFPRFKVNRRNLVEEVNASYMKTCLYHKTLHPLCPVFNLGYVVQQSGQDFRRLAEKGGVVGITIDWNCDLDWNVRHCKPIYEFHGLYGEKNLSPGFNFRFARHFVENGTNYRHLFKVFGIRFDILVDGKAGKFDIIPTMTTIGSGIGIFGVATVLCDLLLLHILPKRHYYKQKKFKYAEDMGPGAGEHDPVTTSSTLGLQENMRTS

[3] = target: T3, P2Y receptor (turkey erythrocyte membranes) (Meleagris gallopavo, UniProt P49652); test: Stimulation of phospholipase C (inositol phosphate formation) in turkey erythrocyte membranes; assay type: biochemical; details: for activity/potency in words, turkey erythrocyte / EC50: turkey erythrocyte membranes
T3 construct: from tissue; host or cells: washed turkey erythrocytes, ghosts prepared by hypotonic lysis
T3 sequence (P49652 whole entry): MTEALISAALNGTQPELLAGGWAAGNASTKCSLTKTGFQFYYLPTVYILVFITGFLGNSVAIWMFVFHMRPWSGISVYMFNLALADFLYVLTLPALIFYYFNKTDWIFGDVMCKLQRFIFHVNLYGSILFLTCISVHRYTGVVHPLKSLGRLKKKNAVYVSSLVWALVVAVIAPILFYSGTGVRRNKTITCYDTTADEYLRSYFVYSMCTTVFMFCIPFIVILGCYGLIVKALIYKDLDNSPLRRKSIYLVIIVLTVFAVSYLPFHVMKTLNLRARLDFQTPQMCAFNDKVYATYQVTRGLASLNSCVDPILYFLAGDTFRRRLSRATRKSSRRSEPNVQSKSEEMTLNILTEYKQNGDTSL
Method: Phospholipase C activity: Stimulation of inositol phosphate formation by compounds of the present invention was measured in turkey erythrocyte membranes as described by Harden et al., supra and Boyer et al., supra. The K0.5 values were averaged from 3-8 independently determined dose-response curves for each compound. Briefly, one ml of washed turkey erythrocytes was incubated in inositol-free medium (DMEM; Gibco) with 0.5-1 mCi of 2-[^3 H]myoinositol (20 Ci/mmol; American Radiolabeled Chemicals Inc., St. Louis, Mo.)for 18-24 h in a humidified atmosphere of 95% air 5% CO2 at 37° C. Erythrocyte ghosts were prepared by rapid lysis in hypotonic buffer (5 mM sodium phosphate, pH 7.4, 5 mM MgCl2, 1 mM EGTA) as described by Boyer et al., supra. Phospholipase C activity was measured in 25 μl of [^3 H]inositol-labeled ghosts (≈175 μg of protein, 200-500,000 cpm/assay) in a medium containing 424 μM CaC12, 0.91 mM MgSO4, 2 mM EGTA, 115 mM KCl, 5 mM KH2 PO4, and 10 mM Hepes, pH 7.0. Assay (100 μl or 200 μl final volume) contained 1 μM GTPγS and the indicated concentrations of nucleotide analogs. Ghosts were incubated at 30° C. for 5 min, and total [^3 H]inositol phosphates were quantitated after purification by anion exchange chromatography according to Harden et al. (supra) and Boyer et al. (supra).
(§1) Phospholipase C activity and muscle relaxation/contraction effects were assessed using the methods recited in Example 3. In FIGS. 10-12, which present the result of assays of phospholipase C activity in turkey erythrocyte membranes, the x-axis is marked in units of the log of the molar concentration of the putative P2Y receptor agonist tested and the y-axis is marked in units of the percentage of maximum production of [^3 H]-inositol phosphate generated. In FIG. 13, the x-axis is marked in units of the negative log of the molar concentration of applied putative P2Y receptor agonists and the y-axis is marked in units of the percentage relaxation of the 50 nM carbachol-induced contraction of guinea pig taenia coli. In FIG. 14, the x-axis is also marked in units of the negative log of the molar concentration of applied putative P2Y receptor agonists and the y-axis is marked in units of the percentage relaxation of the 1 μM noradrenalin-induced contraction of rabbit aorta endothelium. In FIGS. 15-16, the x-axis is marked in units of the negative log of the molar concentration of applied putative p^2X receptor agonists and the y-axis is marked in units of the percentage contraction relative to a standard dose of KCl (i.e., 60 mM), as assessed in guinea pig isolated urinary bladder detrussor muscle (FIG. 15) and guinea pig isolated vas deferens (FIG. 16).

[4] = target: T4, P2Y receptor (taenia coli) (Cavia porcellus, UniProt P59902); test: Relaxation of carbachol-contracted guinea pig taenia coli
T4 construct: Relaxant responses mediated via P2Y receptors were examined in guinea pig taenia coli; from tissue; host or cells: guinea pig taenia coli (carbachol-contracted)
T4 sequence (P59902 whole entry): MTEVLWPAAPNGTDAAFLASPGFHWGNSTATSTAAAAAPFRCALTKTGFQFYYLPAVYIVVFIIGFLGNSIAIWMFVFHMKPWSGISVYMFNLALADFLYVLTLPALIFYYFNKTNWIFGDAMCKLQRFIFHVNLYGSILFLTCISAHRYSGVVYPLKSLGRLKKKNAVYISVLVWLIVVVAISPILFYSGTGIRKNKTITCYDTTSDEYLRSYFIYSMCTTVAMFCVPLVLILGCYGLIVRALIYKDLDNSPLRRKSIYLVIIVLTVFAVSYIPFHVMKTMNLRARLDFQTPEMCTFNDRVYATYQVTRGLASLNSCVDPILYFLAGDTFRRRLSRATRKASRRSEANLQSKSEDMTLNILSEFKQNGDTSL
From the text: (§2) Muscular relaxation/contraction: Relaxant responses mediated via P2Y receptors were examined in guinea pig taenia coli, rabbit aorta, and rabbit mesenteric artery, as described by Hoyle et al. (Br. J. Pharmacol., 107, 367-374 (1992a)), Burnstock et al., (Br. J. Pharmacol., 90, 383-391 (1987a)), and Rubino et al., (Eur. J. Pharmacol., 212, 237-240 (1992)). Contractile responses mediated via P2X receptors were examined in the guinea pig urinary bladder and vas deferens, and rabbit saphenous artery, also using standard methods (see Hoyle et al., supra., 1992; Hoyle et al., Br. J. Pharmacol., 99, 617-621 (1990); and Burnstock et al., Br. J. Pharmacol., 90, 111-120 (1987b)).
Muscular relaxation assays were performed as recited in Example 3. […] All curves are the mean of two determinations except for 5'-ATP (n=38), 2-hexylthio-ATP (n=4), 2-(5-hexenyl)thio-ATP (n=3), and 2-(2-4-nitrophenylethyl)thio-AMP (n=5). […] The pD2 value for 2-methylthio-ATP is 8.0±0.15, as reported by Hoyle et al., in Receptor Data for Biological Experiments, (H. N. Doods and J. C. A. Van Meel, eds., 1992b) at pp. 54-61.
as §1

[5] = target: P2Y receptor (mesenteric artery); test: Relaxation of rabbit mesenteric artery; details: for relaxation pD2, mes. artery: log molar units
[6] = target: T5, P2X receptor (saphenous artery) (Oryctolagus cuniculus, UniProt G1U3D6); test: Contraction of rabbit saphenous artery; details: for activation at 10 µM: read-out: response at 10 μM relative to the contraction produced by 1 μM α,MeATP, saph. artery
T5 construct: and rabbit saphenous artery; from tissue; host or cells: rabbit saphenous artery
T5 sequence (G1U3D6 1-399): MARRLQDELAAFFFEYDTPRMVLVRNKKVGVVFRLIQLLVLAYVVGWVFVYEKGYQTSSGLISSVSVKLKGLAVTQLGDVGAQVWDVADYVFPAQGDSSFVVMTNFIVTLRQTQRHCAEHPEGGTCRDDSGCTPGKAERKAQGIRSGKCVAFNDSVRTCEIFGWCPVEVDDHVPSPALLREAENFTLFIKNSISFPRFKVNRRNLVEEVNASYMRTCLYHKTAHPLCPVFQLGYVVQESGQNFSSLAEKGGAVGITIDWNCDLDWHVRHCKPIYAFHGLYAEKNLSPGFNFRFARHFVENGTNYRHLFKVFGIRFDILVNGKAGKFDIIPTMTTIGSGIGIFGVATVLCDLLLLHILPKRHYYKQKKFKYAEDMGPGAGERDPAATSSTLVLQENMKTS
From the text: as §2
^c For the saphenous artery, the percentages in brackets are response
at 10 μM relative to the contraction produced by 1 μM α,MeATP
ATP in this assay is very weak (EC50 =
1.78 mM). The highest concentrations of the analogues tested were 3-30

[7] = system: P2Y receptor (aorta endothelium); test: Relaxation of noradrenalin-contracted rabbit aorta; details: for activity/potency/selectivity in words, aorta: rabbit aorta endothelial P2Y receptor; for relaxation pD2, aorta: rabbit aorta, log molar units
[8] = mean ± S.E.M. for at least 2 determinations, read-out: phosphatidyl inositol metabolism (K0.5, nM) erythrocyte
[9] = guinea pig taenia coli, log molar units, read-out: relaxation pD2, taenia coli (converted)

Row | activity/potency in words, vas deferens [2] | activity/potency in words, turkey erythrocyte [3] | EC50 [3, 8] | activity/potency in words, taenia coli ([4]; guinea pig taenia coli) | relaxation pD2, mes. artery [5] | SMILES | activity/potency in words, bladder [1] | also measured
1 | more or less as potent as ATP | nearly inactive | > 100000 nM | nearly inactive |  | Nc1ncnc2c1ncn2[C@@H]1O[C@H](COP(=O)(O)OP(=O)(O)OP(=O)(O)O)[C@@H](NC(=O)CCc2ccc(O)cc2)[C@H]1O [3'-[3-(p-Hydroxyphenyl)propionylamino]-3'-deoxyadenosine 5'-triphosphate] | more or less as potent as ATP | activity/potency/selectivity in words, aorta ([7]; listed as 3'-[3-(4-hydroxyphenyl)-propionylamino]-3'-deoxy-ATP): considerably more potent than ATP in the aorta; activity/potency/selectivity in words, aorta ([7]; listed as 3-(p-Hydroxyphenyl-propionylamino-3'-deoxy-ATP)): a high degree of selectivity for the aortic endothelial P2Y receptor; activity/potency in words, mesenteric artery [5]: inactive in the mesenteric artery; activity/potency in words, saphenous artery ([6]; rabbit saphenous artery): inactive in the saphenous artery
2 | without effect | inactive |  | much less potent | 5.0 | Nc1ncnc2c1ncn2[C@@H]1O[C@H](COP(=O)(O)O)[C@@H](O)[C@H]1O [AMP, adenosine 5'-monophosphate, reference compound] | inactive | relaxation pD2, aorta [7]: 4.8; activation at 100 µM ([3]; 5 min, at 10^-4 M, read-out: % stimulation at concentration indicated): 4 ± 2%
3 |  |  | > 100000 nM |  |  | C=CCCCCSc1nc(NC)c2ncn([C@@H]3O[C@H](COP(=O)(O)O)[C@@H](O)[C@H]3O)c2n1 [N^6 -Me-2-(5-hexenyl)-thio-AMP, N^6 -Me-2-(5-hexenylthio)adenosine monophosphate] |  | activation at 10 µM ([6]; rabbit saphenous artery, 10 μM): 6.7%
4 | without effect in the vas deferens |  | 143000 nM |  | 6.7 | O=c1ccn([C@@H]2O[C@H](COP(=O)(O)OP(=O)(O)OP(=O)(O)O)[C@@H](O)[C@H]2O)c(=O)[nH]1 [UTP, reference compound] | as potent as or more potent than ATP in the bladder | relaxation pD2, aorta [7]: 4.8; EC50 [4, 9]: 316 µM

Row | SMILES | activity/potency in words, vas deferens [2] | activity/potency in words, turkey erythrocyte [3] | EC50 [3, 8] | activity/potency in words, taenia coli ([4]; guinea pig taenia coli) | relaxation pD2, mes. artery [5] | activity/potency in words, bladder [1] | also measured
5 | Nc1ncnc2c1ncn2[C@H]1CC[C@@H](COP(=O)(O)OP(=O)(O)OP(=O)(O)O)O1 [2',3'-Dideoxy-ATP, 2',3'-dideoxy-ATP, reference compound] | ≈ATP | weakly active at turkey erythrocyte P2Y receptors | 70800 nM | as potent as ATP at taenia coli P2Y receptors |  | >ATP | EC50 [4, 9]: 10 µM
6 | N#CCCCCCCSc1nc(N)c2ncn([C@@H]3O[C@H](COP(=O)(O)O)[C@@H](O)[C@H]3O)c2n1 [2-(6-Cyanohexyl)thio-AMP, 2-(6-cyanohexylthio)-AMP] |  |  | 37000 nM |  | 6.2 |  | activation at 10 µM ([6]; rabbit saphenous artery, 10 μM): 4.5%; EC50 ([3]; read-out: K0.5): 37000 nM; EC50 [4]: 39.8 µM
7 | CC(=O)N[C@H]1[C@@H](O)[C@H](n2cnc3c(N)ncnc32)O[C@@H]1COP(=O)(O)OP(=O)(O)OP(=O)(O)O [3'-Acetylamino-3'deoxy-ATP, 3'-Acetylamino-3'-deoxyadenosine 5'-triphosphate] | more or less as potent as ATP; also recorded: active in the vas deferens and urinary bladder | nearly inactive | > 100000 nM | nearly inactive |  | more or less as potent as ATP; also recorded: active in the vas deferens and urinary bladder | activity/potency/selectivity in words, aorta [7]: inactive at 10 μM at rabbit aorta P2Y receptors; activity/potency in words, mesenteric artery ([5]; listed as 3'-Acetylamino-3'-deoxy-ATP): more potent than ATP at rabbit mesenteric artery P2Y receptors; activity/potency in words, mesenteric artery ([5]; listed as 3'-acetylamino-3'-deoxy-ATP): the only P2Y receptor which had any appreciable activity was that in the rabbit mesenteric artery; activity/potency in words, saphenous artery ([6]; rabbit saphenous artery): inactive in the saphenous artery
8 | Nc1ncnc2c1ncn2[C@@H]1O[C@H](COP(=O)(O)OP(=O)(O)CP(=O)(O)O)[C@@H](O)[C@H]1O [β,γ-Me-ATP, β,γ-methylene-ATP, reference compound] | markedly enhanced activity | nearly inactive at ≥100 μM |  | reduced activity in the taenia coli |  | markedly enhanced activity | activation at 10 µM [6]: 89%; EC50 ([3]; phosphatidyl inositol metabolism (K0.5, nM) erythrocyte, mean ± S.E.M. for at least 2 determinations): > 100000 nM
